Measured values reported in patent US20220153786A1, “PEPTIDES FOR PREVENTING BIOFILM FORMATION” (priority 2019, published 2022).

Key:
[1] = test system: Staphylococcus epidermidis RP62A (ATCC 35984) biofilm; assay: Biofilm formation inhibition, crystal violet in 96-well PVC microtiter plates; assay type: cell-based; settings: biofilm formation control = 100%
Experimental: Biofilm formation. […] Biofilm inhibition: a protocol adapted from Zimmer et al. (2013) Environmental Microbiology 15:2008-2018 and Trentin et al. (2015) Scientific Reports 5:8287, employing crystal violet in 96-well poly(vinyl chloride) microtiter plates (Falcon; Becton Dickinson Labware, Oxnard, Calif.) was used. Briefly, 100 μL of the bacterial suspension, 100 μL of the peptide solution (at different concentrations) or vehicle (to controls) and 50 μL of tryptone soya broth (TSB, Oxoid Ltd., England). Following 37° C. for 1, 4 or 24 h of incubation, the content of the wells was removed and the wells were washed three times with sterile saline. The remaining contents were heat-fixed at 60° C. for 1 h. The adherent biofilm layer formed was stained with 0.4% crystal violet for 15 min at room temperature and then washed three times with distilled water. The stain bound to the cells was solubilized with absolute ethanol (Sigma-Aldrich Co., USA) and absorbance was measured at 570 nm (Powerwave™ XS Plate Reader, BIO-TEK Instruments®, Inc.). The biofilm formation controls represent 100% of biofilm formation. Biofilm eradication: biofilm was pre-formed as described before, during 24 h at 37° C., without treatment. After biofilm formation, the wells were washed to remove the planktonic cells and the peptides solutions and controls were added and incubated for 24 h. The eradication was verified by evaluating the remaining content by crystal violet.
Biofilm formation inhibition: A protocol adapted from Trentin et al. (2015) Scientific Reports 5 was used, with crystal violet in 96-well BD Falcon polyvinyl chloride (PVC) microtiter plates. The cell-bound stains were solubilized with absolute ethanol (Sigma-Aldrich), and absorbance was measured at 570 nm using a BIO-TEK PowerWave XS plate reader. The biofilm formation control represents 100% of biofilm formation.

[2] = test system: Staphylococcus epidermidis ATCC 35984; assay: Bacterial growth assay, microtiter plates OD600; assay type: cell-based; settings: untreated growth control = 100%
Experimental: Bacterial growth assays. Microtiter plates: bacterial growth was evaluated by difference between the optical density absorbance at 600 nm measured at the end and the beginning of the incubation time (37° C., 1, 4 or 24 h) in 96-well poly(vinyl chloride) microtiter plates. Rifampicin 16 μg/mL (Sigma-Aldrich Co., USA) was used as a control for bacterial growth inhibition. Colony-forming units (CFU/mL): after incubation (37° C., 24 h) the CFU was calculated to determine bactericidal effect of peptide solution. Untreated growth control was considered 100% of planktonic cells. All assays were at least performed as technical and biological triplicates.
Microtiter plates: Bacterial growth was evaluated by comparing OD600 values at the start and end of incubation in 96-well PVC microtiter plates.

[3] = positive control, concentration 780 (μM)

Molecule | Remanescent biofilm (%) ([1]; peptide concentration 100 μM) | Growth (%) ([2]; peptide concentration 100 μM) | other results
RSCQQQIQQAQQ (P3a) | 61.5 | 89.9 | 
RVQSEEGEDQISQRE (P1) | 64.9 | 123.2 | 
RSCQQQIQQAQQLSSCQQYLKQRVQSEEGEDQISQRE (P31) [synthetic peptide derived from 2S sulfur-rich seed storage protein 2-like of Capsicum baccatum] |  |  | Remanescent biofilm (%) ([1]; peptide concentration 400 μM): 8.3%; Growth (%) ([2]; peptide concentration 400 μM): 88.6%
IQQAQQLS (P3y) |  |  | Remanescent biofilm (%) ([1]; peptide concentration 10 μM): 6.2%; Growth (%) ([2]; peptide concentration 10 μM): 172.0%
CO[C@H]1/C=C/O[C@@]2(C)Oc3c(C)c(O)c4c(O)c(c(/C=N/N5CCN(C)CC5)c(O)c4c3C2=O)NC(=O)/C(C)=C\C=C\[C@H](C)[C@H](O)[C@@H](C)[C@@H](O)[C@@H](C)[C@H](OC(C)=O)[C@@H]1C [Rifampicin, reference compound] |  |  | Remanescent biofilm (%) [1, 3]: 9.7%; Growth (%) [2, 3]: 28.7%
RSCQQQ (P3x) | 34.4 | 91.9 | 
SCQQYLKQ (P3z) | 46.3 | 169.9 | 
